Series [1] concerns HK-2. The series is described as follows: Anti-fibrotic activity in TGFbeta-1-treated HK-2 cells assessed as Col4A1 mRNA level at 10 uM incubated for 24 to 48 hrs by qPCR analysis (reference value: 2.81 +/- 0.22). It is filed as functional, Homo sapiens. Particulars: time 24-48 hrs. In general terms: In qPCR the cycle at which signal appears reflects the starting amount.
The test system of series [2] is HK-2. The experiment in a line: Anti-fibrotic activity in TGFbeta-1-treated HK-2 cells assessed as vimentin mRNA level at 10 uM incubated for 24 to 48 hrs by qPCR analysis (reference value: 2.2 +/- 0.28). It is filed as functional, Homo sapiens. Conditions: time 24-48 hrs.
The subject of series [3] is HK-2. The experiment in a line: Anti-fibrotic activity in TGFbeta-1-treated HK-2 cells assessed as fibronectin mRNA level at 10 uM incubated for 24 to 48 hrs by qPCR analysis (reference value: 2.16 +/- 0.31). It is filed as functional, Homo sapiens. Particulars: time 24-48 hrs.
In series [4] the test system is HK-2. The experiment in a line: Anti-fibrotic activity in TGFbeta-1-treated HK-2 cells assessed as decrease in Col4A1 mRNA level at 10 uM incubated for 24 to 48 hrs by qPCR analysis relative to control. It is filed as functional, Homo sapiens. Details: scale not given: the % may be the effect or the level left. Particulars: time 24-48 hrs.
Series [5] deals with HK-2. The series is described as follows: Anti-fibrotic activity in TGFbeta-1-treated HK-2 cells assessed as decrease in vimentin mRNA level at 10 uM incubated for 24 to 48 hrs by qPCR analysis relative to control. It is filed as functional, Homo sapiens. Details: scale not given: the % may be the effect or the level left. Particulars: time 24-48 hrs.
Series [6] concerns HK-2. The experiment in a line: Anti-fibrotic activity in TGFbeta-1-treated HK-2 cells assessed as decrease in fibronectin mRNA level at 10 uM incubated for 24 to 48 hrs by qPCR analysis relative to control. The series is classed as functional, Homo sapiens. Details: scale not given: the % may be the effect or the level left. Conditions: time 24-48 hrs.
The test system of series [7] is HK-2. The series is described as follows: Anti-fibrotic activity in TGFbeta-1-treated HK-2 cells assessed as decrease in vimentin level at 1 to 10 uM incubated for 24 to 48 hrs by Western blot analysis. Conditions: Homo sapiens, dose 1-10 µM, time 24-48 hrs. It is filed as functional, cell-based.
Series [8] concerns HK-2. The experiment in a line: Anti-fibrotic activity in TGFbeta-1-treated HK-2 cells assessed as decrease in alpha-SMA level at 5 to 10 uM incubated for 24 to 48 hrs by Western blot analysis. The series is classed as functional, cell-based. Particulars: Homo sapiens, dose 5-10 µM, time 24-48 hrs. On the technique in general: Immunoblotting shows a protein as a band on a membrane.

The subject of series [9] is HK-2. The experiment in a line: Anti-fibrotic activity in TGFbeta-1-treated HK-2 cells assessed as Col4A1 mRNA level at 10 uM incubated for 24 to 48 hrs by qPCR analysis (reference value: 2.54 +/- 0.24). It is filed as functional, Homo sapiens. Particulars: time 24-48 hrs.
The subject of series [10] is HK-2. The series is described as follows: Anti-fibrotic activity in TGFbeta-1-treated HK-2 cells assessed as vimentin mRNA level at 10 uM incubated for 24 to 48 hrs by qPCR analysis (reference value: 3.73 +/- 0.47). Conditions: time 24-48 hrs. The series is classed as functional, Homo sapiens.
For series [11], the system named is HK-2. The experiment in a line: Anti-fibrotic activity in TGFbeta-1-treated HK-2 cells assessed as fibronectin mRNA level at 10 uM incubated for 24 to 48 hrs by qPCR analysis (reference value: 11.31 +/- 2.49). It is filed as functional, Homo sapiens. Particulars: time 24-48 hrs.
The test system of series [12] is HK-2. The experiment in a line: Anti-fibrotic activity in TGFbeta-1-treated HK-2 cells assessed as decrease in fibronectin level at 5 to 10 uM incubated for 24 to 48 hrs by Western blot analysis. It is filed as functional, cell-based. Particulars: Homo sapiens, dose 5-10 µM, time 24-48 hrs.
Series [13] deals with HK-2. The experiment in a line: Anti-fibrotic activity in TGFbeta-1-treated HK-2 cells assessed as decrease in alpha-SMA level at 1 uM incubated for 24 to 48 hrs by Western blot analysis. The series is classed as functional, cell-based. Conditions: Homo sapiens, time 24-48 hrs.
Series [14] has as its system HK-2. The series is described as follows: Anti-fibrotic activity in TGFbeta-1-treated HK-2 cells assessed as Col4A1 mRNA level at 10 uM incubated for 24 to 48 hrs by qPCR analysis (reference value: 2.35 +/- 0.38). It is filed as functional, Homo sapiens. Conditions: time 24-48 hrs.
The subject of series [15] is HK-2. The experiment in a line: Anti-fibrotic activity in TGFbeta-1-treated HK-2 cells assessed as vimentin mRNA level at 10 uM incubated for 24 to 48 hrs by qPCR analysis (reference value: 1.88 +/- 0.48). The series is classed as functional, Homo sapiens. Conditions: time 24-48 hrs.
The subject of series [16] is HK-2. The experiment in a line: Anti-fibrotic activity in TGFbeta-1-treated HK-2 cells assessed as fibronectin mRNA level at 10 uM incubated for 24 to 48 hrs by qPCR analysis (reference value: 6.88). The series is classed as functional, Homo sapiens. Conditions: time 24-48 hrs.
Series [17] relates to HK-2. The experiment in a line: Anti-fibrotic activity in TGFbeta-1-treated HK-2 cells assessed as decrease in Col4A1 level at 1 uM incubated for 24 to 48 hrs by Western blot analysis. The series is classed as functional, cell-based. Conditions: Homo sapiens, time 24-48 hrs.
In series [18] the test system is HK-2. The experiment in a line: Anti-fibrotic activity in TGFbeta-1-treated HK-2 cells assessed as decrease in vimentin level at 1 uM incubated for 24 to 48 hrs by Western blot analysis. The series is classed as functional, cell-based. Conditions: Homo sapiens, time 24-48 hrs.
In series [19] the test system is HK-2. The series is described as follows: Anti-fibrotic activity in TGFbeta-1-treated HK-2 cells assessed as decrease in fibronectin level at 1 uM incubated for 24 to 48 hrs by Western blot analysis. The series is classed as functional, cell-based. Conditions: Homo sapiens, time 24-48 hrs.
Series [20] concerns HK-2. The experiment in a line: Cytotoxicity against TGFbeta-1-treated HK-2 cells assessed as decrease in cell viability at 1 to 5 uM incubated for 48 hrs by Cell Titer-Glo assay. It is filed as toxicity, cell-based. Conditions: human, hk-2, 48 h, dose 1-5 µM.
Series [21] can be described thus: Cytotoxicity against TGFbeta-1-treated HK-2 cells assessed as cell viability at 10 uM incubated for 48 hrs by Cell Titer-Glo assay (Rvb ~ 80 %). The series is classed as toxicity, cell-based. Particulars: human, read-out: Activity.
The subject of series [22] is HK-2. The experiment in a line: Anti-fibrotic activity in HK-2 cell model of 10 ng/ml TGFbeta-1-induced fibrosis injury assessed as Col4A1 mRNA level at 10 uM incubated for 24 to 48 hrs by qPCR analysis (reference value: 2.44 +/- 0.21). It is filed as functional, Homo sapiens. Particulars: time 24-48 hrs.
The subject of series [23] is HK-2. The series is described as follows: Anti-fibrotic activity in HK-2 cell model of 10 ng/ml TGFbeta-1-induced fibrosis injury assessed as Col4A1 mRNA level at 20 uM incubated for 24 to 48 hrs by qPCR analysis (reference value: 2.44 +/- 0.21). The series is classed as functional, Homo sapiens. Conditions: time 24-48 hrs.
Series [24] has as its system HK-2. The series is described as follows: Anti-fibrotic activity in HK-2 cell model of 20 ng/ml TGFbeta-1-induced fibrosis injury assessed as Col4A1 mRNA level at 10 uM incubated for 24 to 48 hrs by qPCR analysis (reference value: 8.96 +/- 0.96). The series is classed as functional, Homo sapiens. Conditions: time 24-48 hrs.
Series [25] deals with HK-2. The series is described as follows: Anti-fibrotic activity in HK-2 cell model of 20 ng/ml TGFbeta-1-induced fibrosis injury assessed as Col4A1 mRNA level at 20 uM incubated for 24 to 48 hrs by qPCR analysis (reference value: 8.96 +/- 0.96). Conditions: time 24-48 hrs. It is filed as functional, Homo sapiens.
The subject of series [26] is HK-2. The series is described as follows: Anti-fibrotic activity in HK-2 cell model of 10 ng/ml TGFbeta-1-induced fibrosis injury assessed as vimentin mRNA level at 10 uM incubated for 24 to 48 hrs by qPCR analysis (reference value: 1.41 +/- 0.1). It is filed as functional, Homo sapiens. Conditions: time 24-48 hrs.
Series [27] concerns HK-2. The experiment in a line: Anti-fibrotic activity in HK-2 cell model of 10 ng/ml TGFbeta-1-induced fibrosis injury assessed as vimentin mRNA level at 20 uM incubated for 24 to 48 hrs by qPCR analysis (reference value: 1.41 +/- 0.1). The series is classed as functional, Homo sapiens. Conditions: time 24-48 hrs.
Series [28] deals with HK-2. The series is described as follows: Anti-fibrotic activity in HK-2 cell model of 20 ng/ml TGFbeta-1-induced fibrosis injury assessed as vimentin mRNA level at 10 uM incubated for 24 to 48 hrs by qPCR analysis (reference value: 3.19 +/- 0.23). The series is classed as functional, Homo sapiens. Conditions: time 24-48 hrs.
Series [29] concerns HK-2. The experiment in a line: Anti-fibrotic activity in HK-2 cell model of 20 ng/ml TGFbeta-1-induced fibrosis injury assessed as vimentin mRNA level at 20 uM incubated for 24 to 48 hrs by qPCR analysis (reference value: 3.19 +/- 0.23). It is filed as functional, Homo sapiens. Conditions: time 24-48 hrs.

The source made the active and inactive calls. The rule behind the calls is not given here. A value given as a limit tells only on which side of the number the result lay.

Take `CC(C)=CCC[C@]1(C)Oc2ccc(O)cc2C2=CC(=O)CC[C@@H]21` (racemic): the Activity in the series on HK-2 [1] is listed as 1.1; in the series on HK-2 [2], 1.22; in the series with HK-2 [3], 0.6; in the series with HK-2 [4], “<=50%”; in the series on HK-2 [5] it was “<=50%”; with HK-2 [6], “<=50%”. Besides, the outcome in the series with HK-2 [7] and in the series on HK-2 [8] was Active.

As for `CC(C)=CCC[C@]1(C)Oc2ccc(O)cc2C2=CC(=O)CC[C@H]21` (racemic), the figures for the Activity in the series with HK-2 [9], in the series with HK-2 [10] and with HK-2 [11] were 0.6, 0.93 and 0.39, respectively. The outcome in the series on HK-2 [12] and with HK-2 [13] was Active.

For `CC(C)=CCCC1(C)Oc2ccc(O)cc2-c2cc(O)ccc21` (racemic), the Activity is listed as 0.66 in the series with HK-2 [14]; 0.65 in the series with HK-2 [15]; 1 with HK-2 [16]; “Non-toxic” with HK-2 [20]; 0.74 in the series on HK-2 [22]; 0.11 in the series with HK-2 [23]. Also, the Activity with HK-2 [24] amounted to 4.08; with HK-2 [25] it was 1.21; in the series with HK-2 [26], 0.54; with HK-2 [27] it was 0.24; with HK-2 [28] it was 1.44; with HK-2 [29] it was 0.5. For the same molecule, the result with HK-2 [17], in the series on HK-2 [18] and with HK-2 [19] was Active. Besides, in series [21], the viability at 48 h, 10 µM worked out at 70%.

For the origin of these results see ChEMBL document CHEMBL6074713, “Chemical Synthesis and Antifibrotic Properties of (±)-Cochlearol T, (±)-Ganocochlearin A, and (±)-Cochlearol Y” (ACS Med Chem Lett, 2024).
